Reference: patent US20210401863A1, “TREATMENT AND PREVENTION OF NEISSERIA GONORRHOEAE INFECTION USING CMP-ACTIVATED NONULOSONATE ANALOG COMPOUNDS” (NATIONAL RESEARCH COUNCIL OF CANADA, priority 2015, published 2021)
Like-named read-outs stand apart in the source and are kept apart here.

What was measured:
[1] = tested on: N. gonorrhoeae F62 ΔlgtD; type: cell-based, Neisseria gonorrhoeae; conditions: for % survival in 3.3% serum / % survival in 10% serum: Table 5
Protocol: Generally, bacteria (F62 ΔlgtD) grown overnight on chocolate agar plates were suspended in gonococcal liquid media supplemented with IsoVitaleX [29] that contained specified concentrations of the CMP-nonulosonate. Bacteria were then incubated at 37° C. for the period specified in each experiment.
Serum bactericidal assays were performed as follows, similar to methods outlined in [32,33] and in U.S. Pat. No. 9,765,106. Bacteria were harvested from an overnight culture on chocolate agar plates and ˜10^5 CFU of Ng were grown in liquid media containing the concentrations of CMP-NuIO as specified for each experiment. Bacteria were diluted in Morse A and ˜2000 CFU of Ng F62 ΔlgtD were incubated with NHS (concentration specified for each experiment). The final reaction volumes were maintained at 150 μL. Aliquots of 25 μL of reaction mixtures were plated onto chocolate agar in duplicate at the beginning of the assay (t0) and again after incubation at 37° C. for 30 minutes (t30). Survival was calculated as the number of viable colonies at t30 relative to t0.
Addition of a terminal Neu5Ac residue to the LNnT LOS of N. gonorrhoeae that occurs in vivo or following the addition of CMP-Neu5Ac to growth media results in resistance to complement-dependent killing. We next determined the effects of LNnT incorporation of KDN on the ability of N. gonorrhoeae F62 ΔlgtD to resist complement-dependent killing by normal human sera at concentrations of 3.3% or 10%. Bacteria were grown either in media alone, or media supplemented with 20 μg/mL of CMP-Neu5Ac or CMP-KDN. In addition, CMP-NulO competition experiments were also performed with CMP-Neu5Ac, CMP-Leg5Ac7Ac and CMP-KDN at CMP-NulO concentrations of either 20 μg/mL or 2 μg/mL as indicated, where the second CMP-NulO was added 15 minutes after the first (Table 1 below). To note, these CMP-NulO competition experiments are a method to examine the ability of select CMP-NulOs to counter the enhanced serum resistance due to CMP-Neu5Ac addition, providing information on their therapeutic potential (as any potential therapeutic will be required to compete with CMP-Neu5Ac in vivo).

[2] = target: T1, gonococcal LOS sialyltransferase (Lst) (Neisseria gonorrhoeae, UniProt P72074); test: mAb 3F11 binding by flow cytometry (incorporation of NulO on LNnT LOS by Lst); type: cell-based, N. gonorrhoeae F62 ΔlgtD; conditions: F62 ΔlgtD grown in media with 20 μg/mL CMP-NulO
T1 construct: CMP-KDN served as a substrate for gonococcal Lst in the context of live bacteria; endogenous in cells; host or cells: N. gonorrhoeae F62 ΔlgtD (live bacteria)
T1 sequence (P72074 whole entry): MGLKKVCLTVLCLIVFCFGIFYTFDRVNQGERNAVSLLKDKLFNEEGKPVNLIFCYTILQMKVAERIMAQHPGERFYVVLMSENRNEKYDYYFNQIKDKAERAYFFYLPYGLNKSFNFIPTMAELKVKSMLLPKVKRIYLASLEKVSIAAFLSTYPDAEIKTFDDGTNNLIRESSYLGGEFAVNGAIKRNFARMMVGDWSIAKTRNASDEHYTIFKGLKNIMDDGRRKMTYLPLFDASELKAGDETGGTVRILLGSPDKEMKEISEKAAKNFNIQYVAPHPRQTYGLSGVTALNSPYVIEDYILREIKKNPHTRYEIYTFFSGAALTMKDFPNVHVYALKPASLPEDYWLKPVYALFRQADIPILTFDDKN
Protocol: FIG. 1: CMP-KDN serves as a substrate for gonococcal LOS and incorporation of KDN on gonococcal lacto-N-neotetraose LOS enhances factor H (FH) binding. A. Incorporation of KDN by gonococci. Gonococcal strain F62 ΔlgtD (expresses lacto-N-neotetraose (LNnT) from Hepl) was grown in media containing CMP-KDN (20 μg/mL) and binding of mAb 3F11 was measured by flow cytometry. mAb 3F11 binds only to […] LNnT; substitution of the terminal Gal of LNnT, for example with a NulO, will decrease mAb 3F11 binding. Approximately 5×10^7 bacteria were incubated with mAb 3F11 tissue culture supernatants for 15 minutes at 37° C. Binding of mAb 3F11 was disclosed with anti-mouse IgM FITC (Sigma; dilution of 1:100). Bacteria grown in CMP-Neu5Ac or in media alone were used as positive and negative controls for sialylation, respectively. A representative histogram is shown in the upper panel. […] B. Factor H (FH) binding to gonococci grown in CMP-KDN. Approximately 5×10^7 bacteria grown in media alone (no sialic acid), media plus CMP-Neu5Ac (20 μg/mL; positive control for FH binding) or in media containing CMP-KDN (20 μg/mL) were incubated with purified human FH (20 μg/mL) in HBSS** for 15 minutes at 37° C. and bound FH was detected with affinity isolated goat anti-human FH followed by anti-goat IgG FITC (Sigma; 1:100 dilution). A representative histogram is shown in the upper panel.
FIG. 3: CMP-KDN7N3 serves as a substrate for gonococcal Lst resulting in incorporation of KDN7N3 on gonococcal lacto-N-neotetraose (LNnT) LOS—Incorporation of KDN7N3 by gonococci. Gonococcal strain F62ΔlgtD (expresses lacto-N-neotetraose (LNnT) from Hepl) was grown in media containing CMP-KDN7N3 (20 μg/mL) and binding of mAb 3F11 was measured by flow cytometry. mAb 3F11 binds only to […] LNnT; substitution of the terminal Gal of LNnT, for example with a NulO, will decrease mAb 3F11 binding. Approximately 5×10^7 bacteria were incubated with mAb 3F11 tissue culture supernatants for 15 minutes at 37° C. Binding of mAb 3F11 was disclosed with anti-mouse IgM FITC (Sigma; dilution of 1:100). […]

[3] = tested on: N. gonorrhoeae F62 ΔlgtD; conditions: from U.S. patent application Ser. No. 14/627,396; cited from earlier work
[4] = target: T1, gonococcal LOS sialyltransferase (Lst); conditions: from U.S. patent application Ser. No. 14/627,396; cited from earlier work
[5] = tested on: N. gonorrhoeae H041; test: BALB/c mouse vaginal colonization model; type: in vivo; conditions: 10 μg intravaginally daily; Premarin treated BALB/c mice
Protocol: FIG. 2: Female BALB/c mice 5-6 weeks of age (Jackson Laboratories) in the diestrus phase of the estrous cycle were started on treatment (that day) with 0.5 mg of Premarin (Pfizer) given subcutaneously on each of three days; −2, 0 and +2 days (before, the day of and after inoculation) to prolong the estrus phase of the cycle and promote susceptibility to N. gonorrhoeae infection. Antibiotics (vancomycin, colistin, neomycin, trimethoprim and streptomycin) that were ineffective against N. gonorrhoeae were also used to reduce competitive microflora. Mice (n=40) were then infected with 10^6 CFU of strain H041. Three groups of mice (n=10/group) were treated with 10 μg intravaginally daily (first dose was administered 30 minutes before the introduction of bacteria) with one of the following CMP-NulOs in normal saline: CMP-Leg5Ac7Ac, CMP-Neu5Ac9Az or CMP-KDN. A fourth group (n=10) was given saline (vehicle control). Vaginal swabs were obtained daily from each animal, serially diluted and plated on chocolate agar containing vancomycin, colistin, neomycin, trimethoprim and streptomycin (VCNTS) to quantify bacterial loads. A. Median time to clearance was estimated using Kaplan-Meier survival curves; the times to clearance were compared between groups using a log-rank test. P<0.0001 for the control versus each of the treatment groups. Time to clearance between each of the treatment groups was similar (P>0.05). B. The mean area under the curve (log10 CFU vs. time) was computed for each mouse to estimate the bacterial burden over time (cumulative infection); the means under the curves were compared between groups using the Kruskal-Wallis nonparametric rank sum test because distributions were skewed or kurtotic. Groups were compared using Dunn's multiple comparison test. ****, P<0.0001; **, P<0.01; *, P<0.05. The differences among the groups that received CMP-NulOs were not significant.
The mouse model experiments and statistical analysis were conducted as described in the art and in U.S. Pat. No. 9,765,106. […]

[6] = tested on: purified human FH; conditions: from U.S. Pat. No. 9,765,106 / Ser. No. 14/627,396; cited from earlier work

| SMILES | serum sensitivity (in words) ([1]; CMP-NulO alone, 10% serum) | % survival in 3.3% serum ([1]; CMP-NulO 20 μg/mL) | % survival in 10% serum ([1]; CMP-NulO 20 μg/mL, 10% serum) | % survival in 3.3% serum ([1]; CMP-NulO 100 μg/mL) | % survival in 10% serum ([1]; CMP-NulO 100 μg/mL, 10% serum) | binding of mAb 3F11 (use as substrate by gonococcal Lst) [2] | serum resistance / serum-mediated killing (earlier results) [3] | substrate for gonococcal LOS sialyltransferase (Lst) (earlier results) [4] | attenuation of N. gonorrhoeae H041 infection [5] | fH binding to bacteria (earlier results) [6] |
| --- | --- | --- | --- | --- | --- | --- | --- | --- | --- | --- |
| [N-]=[N+]=N[C@@H](C1O[C@](OP(=O)(O)OC[C@H]2O[C@@H](n3ccc(N)nc3=O)C(O)C2O)(C(=O)O)CC(O)[C@H]1O)[C@H](O)CO (stereo partly drawn) [CMP-KDN7N3, cytidine 5′-monophospho-3,7-dideoxy-7-azido-D-glycero-D-galacto-nonulosonic acid] | resulted in serum sensitivity | 125.60% | 33.92% | 123.67% | 22.52% | could be utilized by gonococcal LOS sialyltransferase (Lst) |  |  |  |  |
| CC(=O)NC1C(O)CC(OP(=O)(O)OCC2OC(n3ccc(N)nc3=O)C(O)C2O)(C(=O)O)OC1C(O)C(O)COC(C)=O (stereo not drawn) [CMP-Neu5Ac9Ac] |  |  |  |  |  |  | enhanced serum-mediated killing | can serve as substrates for gonococcal LOS sialyltransferase (Lst) |  |  |
| CC(=O)N[C@H]1[C@H]([C@H](O)[C@H](O)CN=[N+]=[N-])OC(OP(=O)(O)OC[C@H]2O[C@@H](n3ccc(N)nc3=O)[C@H](O)[C@@H]2O)(C(=O)O)C[C@@H]1O (stereo partly drawn) [CMP-Neu5Ac9Az] |  |  |  |  |  |  | enhanced serum-mediated killing | can serve as substrates for gonococcal LOS sialyltransferase (Lst) | significantly attenuated | not enhance fH binding above levels seen with an unsialylated F62 ΔlgtD control |
| CO[C@H](CO)[C@@H](O)[C@@H]1O[C@@](OP(=O)(O)OC[C@H]2O[C@@H](n3ccc(N)nc3=O)[C@H](O)[C@@H]2O)(C(=O)O)C[C@H](O)[C@H]1NC(=O)CO [CMP-Neu5Gc8Me] |  |  |  |  |  |  | enhanced serum-mediated killing | can serve as substrates for gonococcal LOS sialyltransferase (Lst) |  | not enhance fH binding above levels seen with an unsialylated F62 ΔlgtD control |
| Nc1ccn([C@@H]2O[C@H](COP(=O)(O)O[C@@]3(C(=O)O)C[C@H](O)[C@@H](NC(=O)CO)[C@H]([C@H](O)[C@H](O)CO)O3)[C@@H](O)[C@H]2O)c(=O)n1 [CMP-Neu5Gc] |  |  |  |  |  |  | able to simulate the high-level serum resistance reported for CMP-Neu5Ac | can serve as substrates for gonococcal LOS sialyltransferase (Lst) |  | high level of fH binding to bacteria |
